Measured values: publication PMC5130025, “A new antiproliferative noscapine analogue: chemical synthesis and biological evaluation” (Oncotarget, 2016)
pIC50, pKd: −log10 of the molar value.

Key:
tubulin = assay: Microtubule assembly assay (turbidity); assay type: biochemical; conditions: 10 μM compound, tubulin 3 mg/mL, 37°C, turbidity at 340 nm
Description: The turbidity was recorded on 96-half area well plates by microplate reader at 340 nm as an indicator for microtubules formation. […] Tubulin at a concentration of 3mg/mL in tubulin buffer (80 mM PIPES pH 6.9, 2 mM MgCl2, 0.5 mM EGTA, 1 mM GTP, 10.2% glycerol) was kept at 4°C before being added to the wells and shifting to 37°C. The absorbance was measured using the kinetic absorbance mode. DMSO solutions of paclitaxel and colchicine (10 μM) were used as controls.

[1] = tested on: paclitaxel-resistant SKBR-3 breast cancer cell line; assay: MTT assay, paclitaxel-resistant SKBR-3; assay type: cell-based; conditions: Homo sapiens, SK-BR-3, paclitaxel-resistant SKBR-3, 24 h treatment (21 h + 3 h MTT); read-out: IC50, cell viability (MTT)
Description: (§1) The human breast cancer cell lines SKBR-3 and paclitaxel-resistant SKBR-3 were kindly provided by Marc St. George (University of Alberta, Canada). Both cell lines were grown in RPMI 1640 medium (GIBCO) with 10% fetal calf serum and 1 mM L-glutamine 1% penicillin/streptomycin mixture under a humidified atmosphere containing 5% CO2. Addition of 16.65 nM paclitaxel to the paclitaxel-resistant cell line is mandatory to keep the acquired resistance at the same efficiency level.
(§2) The human breast cancer cell lines SKBR-3 and paclitaxel-resistant SKBR-3 (1 × 10^4 cells per well) were seeded into 96-well plates. […] After 21 h incubation, 50 μL of MTT (1 mg/mL) solution was added and the plates were incubated for an additional 3 h. After centrifugation, supernatant was removed from each well and […] of dimethyl sulfoxide (DMSO) was added to dissolve the insoluble formazan crystals. The absorbance was measured at 570 nm and 690 nm subtracted as a background, using microplate reader. The data was plotted using GraphPad Prism 5.0 software. IC50 and statistical analysis (t-test) were calculated using the same software.

[2] = tested on: SKBR-3 breast cancer cell line; assay: MTT assay, SKBR-3; assay type: cell-based; conditions: Homo sapiens, SK-BR-3; SKBR-3, 24 h treatment (21 h + 3 h MTT); read-out: IC50, cell viability (MTT)
Description: as §1, §2

[3] = biological target: Porcine brain tubulin (unfractionated); assay: Tryptophan fluorescence quenching binding assay, porcine brain tubulin; conditions: dissociation constant, calculated
αI,βIII-tubulin = biological target: T1, αI,βIII-tubulin (Homo sapiens, UniProt Q13509+Q71U36); assay: Tryptophan fluorescence quenching binding assay, recombinant αI,βIII-tubulin heterodimer; conditions: dissociation constant, calculated
T1 construct: His-tag (N); made in house; host or cells: E. coli BL21 (DE3)
Description: (§3) The protein sequence of human αI-tubulin is given by UniProtKB accession number Q71U36 (gene name TUBA1A), the protein sequence of human βI-tubulin is given by UniProtKB accession number P07437 (gene name TUBB) and that of human βIII-tubulin is given by UniProtKB accession number Q13509 (gene name TUBB3). The cloning work for αI- and βI-tubulin was performed and reported previously. For the βIII human tubulin protein, the sequence was converted into DNA sequences with codons optimized for production in Escherichia coli, and for purification purposes, a His-tag was added at the N-terminus. The βIII-tubulin gene was inserted into a pET15b vector between the XhoI and NdeI restriction sites. The correct sequence, insertion, and orientation of the tubulin constructs were verified by DNA sequencing. Recombinant proteins were expressed in E. coli BL21 (DE3) host cells in LB medium supplemented with 100 μg/mL ampicillin. The cultures were grown at 37°C until an OD600 = 0.8 was reached, and the cells were induced with 1.0 mM isopropyl b-D-1-thiogalactopyranoside (IPTG) for 18 h at 25°C. After induction, the cells were harvested by centrifugation (6000 × g for 20 min at 4°C in SLC-6000 evolution sorvall rotor). The three variants of the tubulin protein were isolated from the inclusion bodies. […]

αI,βI-tubulin = biological target: T2, αI,βI-tubulin (Homo sapiens, UniProt P07437+Q71U36); assay: Tryptophan fluorescence quenching binding assay, recombinant αI,βI-tubulin heterodimer; conditions: dissociation constant, calculated
T2 construct: made in house; host or cells: E. coli BL21 (DE3)
Description: as §3

βI,βI-tubulin = biological target: T3, βI,βI-tubulin (Homo sapiens, UniProt P07437); assay: Tryptophan fluorescence quenching binding assay, recombinant βI,βI-tubulin homodimer; conditions: dissociation constant, calculated
T3 construct: made in house; host or cells: E. coli BL21 (DE3)
Description: as §3

T3 sequence (P07437 whole entry): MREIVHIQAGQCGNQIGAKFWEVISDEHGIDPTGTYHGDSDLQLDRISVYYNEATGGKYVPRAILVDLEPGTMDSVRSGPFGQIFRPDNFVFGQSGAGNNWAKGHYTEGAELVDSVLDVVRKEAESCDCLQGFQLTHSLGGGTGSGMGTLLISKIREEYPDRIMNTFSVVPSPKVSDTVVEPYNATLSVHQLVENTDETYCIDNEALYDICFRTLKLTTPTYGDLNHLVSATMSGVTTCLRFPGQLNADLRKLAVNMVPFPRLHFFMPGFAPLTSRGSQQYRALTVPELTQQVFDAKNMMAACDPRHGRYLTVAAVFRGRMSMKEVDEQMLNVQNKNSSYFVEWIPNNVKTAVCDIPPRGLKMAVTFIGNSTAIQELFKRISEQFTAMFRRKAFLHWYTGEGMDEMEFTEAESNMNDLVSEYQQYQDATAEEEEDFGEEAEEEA
T2 sequence (Q71U36 whole entry): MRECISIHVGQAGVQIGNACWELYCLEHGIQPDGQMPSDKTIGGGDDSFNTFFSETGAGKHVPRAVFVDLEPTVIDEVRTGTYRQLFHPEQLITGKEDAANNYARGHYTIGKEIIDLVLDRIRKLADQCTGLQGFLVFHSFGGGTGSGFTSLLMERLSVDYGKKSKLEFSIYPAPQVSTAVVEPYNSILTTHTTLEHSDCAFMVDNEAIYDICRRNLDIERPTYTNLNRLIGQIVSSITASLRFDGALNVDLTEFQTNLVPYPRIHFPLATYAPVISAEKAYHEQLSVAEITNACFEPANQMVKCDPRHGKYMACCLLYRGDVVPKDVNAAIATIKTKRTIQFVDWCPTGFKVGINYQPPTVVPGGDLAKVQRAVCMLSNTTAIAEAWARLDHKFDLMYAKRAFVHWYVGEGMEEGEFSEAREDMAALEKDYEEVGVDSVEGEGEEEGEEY
T2 sequence (P07437 whole entry): as the sequence (P07437 whole entry) above
T1 sequence (Q71U36 whole entry): as the sequence (Q71U36 whole entry) above
T1 sequence (Q13509 whole entry): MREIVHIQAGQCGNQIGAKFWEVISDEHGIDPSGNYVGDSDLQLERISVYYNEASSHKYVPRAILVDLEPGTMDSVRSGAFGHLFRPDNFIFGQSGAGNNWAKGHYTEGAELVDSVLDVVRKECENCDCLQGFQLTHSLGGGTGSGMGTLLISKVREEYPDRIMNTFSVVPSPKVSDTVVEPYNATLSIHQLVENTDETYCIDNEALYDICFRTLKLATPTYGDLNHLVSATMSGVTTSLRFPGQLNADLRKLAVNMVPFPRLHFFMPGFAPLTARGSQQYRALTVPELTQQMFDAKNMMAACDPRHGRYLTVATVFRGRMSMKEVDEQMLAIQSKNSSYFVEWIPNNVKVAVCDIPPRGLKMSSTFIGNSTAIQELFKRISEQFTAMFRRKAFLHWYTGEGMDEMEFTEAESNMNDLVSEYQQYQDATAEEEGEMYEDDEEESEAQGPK

| pIC50 [1] | pIC50 [2] | pKd [3] | pKd (αI,βIII-tubulin) | pKd (αI,βI-tubulin) | pKd (βI,βI-tubulin) | Compound | Effect on MT polymerization (tubulin) |
| --- | --- | --- | --- | --- | --- | --- | --- |
| ~4.19 | ~4.40 | – | – | – | – | COc1ccc2c(c1OC)C(=O)O/C2=C\c1ccc2c(c1)OCO2 [Compound 8, (Z)-3-(benzo[d][1,3]dioxol-5-ylmethylene)-6,7-dimethoxyisobenzofuran-1(3H)-one] | destabilize MT |
| ~4.00 | ~4.00 | 3.58 | 3.54 | 3.53 | 3.37 | COc1ccc2c(c1OC)C(=O)O[C@@H]2[C@H]1c2c(cc3c(c2OC)OCO3)CCN1C [Noscapine] | stabilize MT |
